The test system of one data set is U87MG cells. The data set is described as follows: Mitotic phenotype study in U87MG cells. Format: cell-based, human. As to conditions: 0.03 μM, listed as A-2. The method, then:
Distinct mitotic phenotypes are induced following inhibition of PLK1 and PLK4 in cells. […] Centriole assembly is controlled by PLK4, with inhibitors inducing a multipolar spindle phenotype due to centrosome defects which results in abnormal cyokinesis (Wong et al., 2015. Science 348(6239); 1155-1160). Cells were plated at 10 000/well in 96-well plates and incubated overnight. The following day atropisomer A-2 stocks in DMSO were diluted in medium then added to cells with a maximum final DMSO concentration on cells of 0.2%. Cells were incubated with the compound for 24 hours then fixed in 3.7% formaldehyde. Cells were permeabilised with 0.1% Triton X-100 then incubated with anti-phospho-histone H3 (Ser10) antibody (Abcam). The cells were washed with PBS then incubated with AlexaFluor 488 labelled goat anti-rabbit IgG (Invitrogen) in the presence of 4 ug/mL Hoechst 33342 (Invitrogen). Cells were washed in PBS then imaged on an Arrayscan VTi HCS instrument using the Target Activation V4 Bioapplication. A user-defined threshold was applied to identify mitotic cells based on the intensity of phospho-histone H3 staining. In a separate study, following the above protocol and using single compound concentrations of 0.03 μM for each of atropisomer A-1 and atropisomer A-2, the frequency of observed mitotic phenotypes in U87MG cells was manually assessed and classified into the following phenotypes: non-congressed chromosomes, multipolar spindles/abnormal cytokinesis, monopolar spindles, normal prometaphase, normal metaphase for each of A-1 and A-2.

The target in data set [1] is T1, panel of ninety-seven kinases (Homo sapiens, UniProt P29597).
T1 construct: purchased DiscoverX; host or cells: T7 phage in E. coli (BL21-derived) for most kinases; HEK-293 for the rest
The experiment in a line: DiscoverX KinomeScreen kinase selectivity competition binding assay. The settings on record: TYK2; read-out: % Ctrl @ 3 μM. The procedure: (§1) Atropisomer A-2 has been tested for off-target activity against a panel of ninety-seven kinases distributed across the kinome at a concentration of 3 μM using the DiscoverX KinomeScreen assay. The DiscoverX KinomeScreen assay is a site-directed competition binding assay which measures the binding affinity of a compound to a kinase, by use of a solid supported control compound which can bind or capture the kinases in solution. In the absence of a kinase-inhibitor test compound, all of the kinase will bind to the solid support. If a kinase-inhibitor test compound is added to the assay mix, the amount of kinase binding to the solid support will be reduced, the extent of reduction being dependent on the potency of the test compound as a kinase inhibitor. […] For most assays, kinase-tagged T7 phage strains were grown in parallel in 24-well blocks in an E. coli host derived from the BL21 strain. E. coli were grown to log-phase and infected with T7 phage from a frozen stock (multiplicity of infection=0.4) and incubated with shaking at 32° C. until lysis (90-150 minutes). The lysates were centrifuged (6,000×g) and filtered (0.2 μm) to remove cell debris. The remaining kinases were produced in HEK-293 cells and subsequently tagged with DNA for qPCR detection. Streptavidin-coated magnetic beads were treated with biotinylated small molecule ligands for 30 minutes at room temperature to generate affinity resins for kinase assays. The liganded beads were blocked with excess biotin and washed with blocking buffer (SeaBlock (Pierce), 1% BSA, 0.05% Tween 20, 1 mM DTT) to remove unbound ligand and to reduce non-specific phage binding. […] Test compounds were prepared as 40× stocks in 100% DMSO and directly diluted into the assay. All reactions were performed in polypropylene 384-well plates in a final volume of 0.02 ml. […] The beads were then re-suspended in elution buffer (1×PBS, 0.05% Tween 20, 0.5 μM non-biotinylated affinity ligand) and incubated at room temperature with shaking for 30 minutes. The kinase concentration in the eluates was measured by qPCR. Compounds that bind the kinase active site and directly (sterically) or indirectly (allosterically) prevent kinase binding to the immobilized ligand, will reduce the amount of kinase captured on the solid support. […] The strength of binding of the test molecule to the kinase can be expressed as the percent control (% Ctrl) The compound(s) were screened at 3000 nM concentration, and results for primary screen binding interactions are reported as ‘% Ctrl’, where lower numbers indicate stronger hits in the matrix on the following page(s). [formula] • negative control=DMSO (100% Ctrl) • positive control=control compound (0% Ctrl)

Data set [2] deals with T2, panel of ninety-seven kinases (Homo sapiens, UniProt Q02156).
T2 construct: purchased DiscoverX; host or cells: T7 phage in E. coli (BL21-derived) for most kinases; HEK-293 for the rest
Described as above. As to conditions: PRKCE; read-out: % Ctrl @ 3 μM. The procedure: as §1

The next data set deals with T3, PLK4 catalytic domain (Homo sapiens, UniProt O00444).
T3 construct: purchased DiscoverX; host or cells: T7 phage in E. coli (BL21-derived) or HEK-293
The data set is described as follows: DiscoverX KinomeScreen competition binding assay, PLK4. The settings on record: read-out: % Ctrl @ 3 μM. The method, then:
Atropisomer A-2 has been tested for off-target activity against a panel of ninety-seven kinases distributed across the kinome at a concentration of 3 μM using the DiscoverX KinomeScreen assay. The DiscoverX KinomeScreen assay is a site-directed competition binding assay which measures the binding affinity of a compound to a kinase, by use of a solid supported control compound which can bind or capture the kinases in solution. In the absence of a kinase-inhibitor test compound, all of the kinase will bind to the solid support. If a kinase-inhibitor test compound is added to the assay mix, the amount of kinase binding to the solid support will be reduced, the extent of reduction being dependent on the potency of the test compound as a kinase inhibitor. […] For most assays, kinase-tagged T7 phage strains were grown in parallel in 24-well blocks in an E. coli host derived from the BL21 strain. […] The kinase concentration in the eluates was measured by qPCR. […] The strength of binding of the test molecule to the kinase can be expressed as the percent control (% Ctrl) The compound(s) were screened at 3000 nM concentration, and results for primary screen binding interactions are reported as ‘% Ctrl’, where lower numbers indicate stronger hits in the matrix on the following page(s). […]

The nature of data set [3]: Mouse PK, plasma after i.v. and p.o. dosing (oral bioavailability). In kind it is in vivo, Male CD-1 mice. As to conditions: for half-life: read-out: T ½ (converted). The method, then: (§2) Atropisomers A-2 and A-3 were evaluated in an in vivo mouse model to determine brain and plasma concentrations following p.o. and i.v. dosing.
(§3) Male CD-1 mice were dosed with the compounds of Examples A-2 and A-3, either by i.v. administration (2 mg/kg) or by p.o. administration (10 mg/kg). Eight samples were taken for analysis in the i.v. leg at 2, 10, 30 min, 1, 2, 4, 8, and 24 (for i.v) and 9 samples in the p.o. leg at 15, 30 min, 1, 2, 4, 8, 24, 48 and 72 hrs.
(§4) The compounds of Examples A-2 and A-3 were both formulated in 10% DMSO/90% hydroxypropyl-beta-cyclodextrin (20% w/v in water) for i.v. and p.o. dosing. N =3 mice per time point.
(§5) Post dosing, terminal blood samples were taken from individual animals and delivered into labelled polypropylene tubes containing anticoagulant (EDTA). The samples were held on wet ice for a maximum of 30 min while sampling of all the animals in the cohort was completed. The blood samples were centrifuged for plasma (4° C., 21100 g for 5 min) and the resulting plasma transferred into corresponding labelled tubes. Terminal brains from each PO dosed animal were excised, rinsed with saline and placed into pre-weighed labelled polypropylene tubes and the samples re-weighed prior to storage.
(§6) Quantitative bioanalysis was carried out using liquid chromatography—mass spectroscopy was performed. The results are shown in Tables 14, 15 and 16 below and in FIGS. 12 to 15.

Data set [4] can be described thus: Mouse PK, brain exposure after p.o. dosing. Format: in vivo, Male CD-1 mice. The procedure:
as §2, §3, §4, §5, §6

Where [5] appears, read: mouse, 2 mg/kg, 2 mq/Kq IV, male CD-1 mice, plasma.
Where [6] appears, read: mouse, 10 mg/kg, 10 mq/Kq PO, male CD-1 mice, plasma.
Where [7] appears, read: mouse, po, brain exposure, p.o. 10 mg/kg, male CD-1 mice.

T3 sequence (O00444 12-265 limits assumed): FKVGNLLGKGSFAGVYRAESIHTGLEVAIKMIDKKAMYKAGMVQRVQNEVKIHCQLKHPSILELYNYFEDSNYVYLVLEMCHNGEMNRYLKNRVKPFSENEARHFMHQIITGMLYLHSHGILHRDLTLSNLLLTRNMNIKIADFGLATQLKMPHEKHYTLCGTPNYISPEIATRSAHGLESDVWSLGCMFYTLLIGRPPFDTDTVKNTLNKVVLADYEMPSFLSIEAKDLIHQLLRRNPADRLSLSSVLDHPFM
T2 sequence (Q02156 whole entry): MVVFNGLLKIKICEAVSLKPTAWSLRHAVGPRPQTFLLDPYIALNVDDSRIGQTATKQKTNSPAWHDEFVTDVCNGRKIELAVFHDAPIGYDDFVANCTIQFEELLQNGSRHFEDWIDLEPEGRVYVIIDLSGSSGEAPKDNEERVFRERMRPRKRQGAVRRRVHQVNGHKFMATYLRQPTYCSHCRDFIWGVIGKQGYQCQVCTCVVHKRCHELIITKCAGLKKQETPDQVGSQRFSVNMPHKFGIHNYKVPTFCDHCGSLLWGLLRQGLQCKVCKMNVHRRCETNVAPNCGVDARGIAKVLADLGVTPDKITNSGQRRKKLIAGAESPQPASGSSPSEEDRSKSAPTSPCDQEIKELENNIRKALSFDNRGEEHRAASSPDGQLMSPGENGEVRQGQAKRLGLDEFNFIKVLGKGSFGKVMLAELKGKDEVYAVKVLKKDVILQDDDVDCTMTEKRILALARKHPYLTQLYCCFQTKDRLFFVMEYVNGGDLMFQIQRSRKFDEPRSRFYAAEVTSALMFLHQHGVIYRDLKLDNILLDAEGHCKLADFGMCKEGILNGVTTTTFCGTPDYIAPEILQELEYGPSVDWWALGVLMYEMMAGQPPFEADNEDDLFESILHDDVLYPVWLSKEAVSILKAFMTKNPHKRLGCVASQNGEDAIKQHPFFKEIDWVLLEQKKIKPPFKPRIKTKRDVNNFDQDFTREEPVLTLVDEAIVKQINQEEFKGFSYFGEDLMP
T1 sequence (P29597 whole entry): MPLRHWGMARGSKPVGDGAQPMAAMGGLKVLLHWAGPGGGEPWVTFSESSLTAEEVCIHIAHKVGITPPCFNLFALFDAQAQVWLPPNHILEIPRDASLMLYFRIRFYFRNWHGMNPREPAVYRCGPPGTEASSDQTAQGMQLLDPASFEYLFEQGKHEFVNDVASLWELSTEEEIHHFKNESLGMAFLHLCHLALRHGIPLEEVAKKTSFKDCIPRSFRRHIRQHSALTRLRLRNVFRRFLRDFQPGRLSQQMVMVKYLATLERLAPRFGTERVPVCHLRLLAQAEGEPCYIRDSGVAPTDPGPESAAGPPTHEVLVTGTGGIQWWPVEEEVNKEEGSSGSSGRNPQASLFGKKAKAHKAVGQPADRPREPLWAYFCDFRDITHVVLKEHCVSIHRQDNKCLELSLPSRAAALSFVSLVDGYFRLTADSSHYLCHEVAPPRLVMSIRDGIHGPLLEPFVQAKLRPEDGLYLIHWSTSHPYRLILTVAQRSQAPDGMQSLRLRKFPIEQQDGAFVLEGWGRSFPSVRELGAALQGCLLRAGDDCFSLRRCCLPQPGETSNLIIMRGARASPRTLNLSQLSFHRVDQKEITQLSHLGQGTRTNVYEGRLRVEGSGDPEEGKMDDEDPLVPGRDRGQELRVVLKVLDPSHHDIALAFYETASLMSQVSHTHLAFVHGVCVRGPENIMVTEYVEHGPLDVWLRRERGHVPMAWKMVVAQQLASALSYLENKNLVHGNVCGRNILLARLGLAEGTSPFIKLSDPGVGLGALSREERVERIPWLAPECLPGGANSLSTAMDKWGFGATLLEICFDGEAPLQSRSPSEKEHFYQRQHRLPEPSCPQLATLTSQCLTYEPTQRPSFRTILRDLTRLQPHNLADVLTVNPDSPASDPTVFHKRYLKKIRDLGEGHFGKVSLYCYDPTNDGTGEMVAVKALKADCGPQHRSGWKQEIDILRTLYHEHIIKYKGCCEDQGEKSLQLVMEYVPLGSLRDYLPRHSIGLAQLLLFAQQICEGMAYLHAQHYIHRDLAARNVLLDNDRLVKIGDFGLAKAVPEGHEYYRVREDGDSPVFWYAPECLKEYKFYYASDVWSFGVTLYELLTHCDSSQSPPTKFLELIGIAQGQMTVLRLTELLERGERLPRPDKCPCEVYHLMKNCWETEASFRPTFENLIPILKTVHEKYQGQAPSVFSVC

As to `CN(C)CCNC(=O)c1ccc(-c2ccc(-c3ccc(Cl)cc3)n2-c2ccccc2C(F)(F)F)cc1` (single isomer, unassigned) [Atropisomer A-2, 4-[5-(4-chlorophenyl)-1-[2-(trifluoromethyl)phenyl]pyrrol-2-yl]-N-[2-(dimethylamino)ethyl]benzamide], in the data set on U87MG cells, the “cells with abnormal cytokinesis” value came out at 70%, the “cells with non-congressed chromosomes” value is listed as 13% and the “cells with normal mitotic phenotype” value amounted to 17%. Moreover, in data set [1], the percent of control kinase binding to immobilized ligand at 3 µM came out at 100%. Besides, the percent of control kinase binding to immobilized ligand at 3 µM in data set [2] stood at 99%. At PLK4 catalytic domain, the remaining binding at 3 µM was found to be 100%. Also, the CI in data set [3] (2 mq/Kq IV, male CD-1 mice, plasma) stood at 20.5 mL/min/kg. In data set [3] (10 mq/Kq PO vs 2 mq/Kq IV, male CD-1 mice), this molecule came in with an F of 76%. Besides, in data set [3] (setting [5]), the total exposure AUC(0-inf) is 1620 ng·h/mL, the peak level (Cmax) was 278 ng/mL and the half-life was 540 min. In data set [3] (setting [6]), the AUC(0-inf) is 6130 ng·h/mL, the concentration peaked (Cmax) at 265 ng/mL and the half-life was 642 min. In addition, the AUC(0-t) in data set [3] (mouse, po, plasma, p.o. 10 mg/kg, male CD-1 mice, read-out: AUClast plasma) was determined as 6130 ng·h/mL. The “oral absorption / oral bioavailability (in words)” value in data set [3] (oral dosing in mice) is reported as “highly absorbed”. Besides, the Kp in data set [4] (male, CD-1, mouse, brain and plasma, 10 mg/kg, brain:plasma, oral dosing in mice, read-out: AUC B:P ratio) amounted to 3.3. Further, in data set [4] (setting [7]), the Cmax turned out to be 693 ng/mL and the Tmax worked out at 8 h. In data set [4] (mouse, po, brain exposure, p.o. 10 mg/kg, male CD-1 mice, read-out: T ½ (converted)), the half-life was 726 min. Moreover, the AUC(0-t) in data set [4] (mouse, po, brain, p.o. 10 mg/kg, male CD-1 mice, read-out: AUClast brain) worked out at 20500 ng·h/mL. The “brain exposure (in words)” value in data set [4] (oral dosing in mice) is “high brain exposure”.
